Read-outs that look alike come from different tables or passages of the source.
Columns and labels:
KIF18A = KIF18A (Homo sapiens (Human), UniProt Q8NI77); assay: KIF18A ATPase activity under tubulin stimulation (ADP-Glo assay); format: biochemical; settings: KIF18A 30 nM, ATP 150 μM, pig microtubules
Description: This experiment assesses the inhibitory effect of the compounds of the present disclosure on the KIF18A target according to the IC50 values by measuring the KIF18A ATPase activity under tubulin stimulation with the presence of the compounds.
• 1. Preparation of 30 mL of reaction buffer: • (1) 450 μL 1M Tris-HCl (pH=7.5)+300 μL 1M MgCl2+30 μL 10% Pluronic F-68 (ThermoFisher, 24040032-100 ml); • (2) adjusting pH to 7.5, and adding water to adjust the volume to 30 mL. • 2. Preparation of a 5 mg/mL pig microtubule (Microtubules; MT) (Cytoskeleton Inc, MT002) stock solution: • (1) 10 mL PM buffer=150 μL 1 M PIPES (pH 7.0)+20 μL 0.5 mM MgCl2+100 μL 2 mM Taxol (Cytoskeleton Inc, TXD01)+9730 μL water. • (2) MT ([…]): Adding 100 μL PM buffer to prepare a 5 mg/mL stock solution. Keeping the MT (Cytoskeleton Inc, MT002) at room temperature for 10-15 minutes, gently mixing and storing same at −80° C. • 3. Preparation of 2 mL of kinase buffer: 2 mL reaction buffer+1 μL 2 mM Taxol (Cytoskeleton Inc, TXD01)+12 μL 5 mg/mL MT (Cytoskeleton Inc, MT002). • 4. Preparation of 2×KIF18A (30 nM) (ChemPartner, CPB-P22-31645) working solution: 2.4 μL 10 μM KIF18A (ChemPartner, CPB-P22-31645)+800 μL 1× kinase buffer. • 5. Preparation of 2×ATP (150 μM) (Promega, G9101) working solution: 12 μL 10 mM ATP+800 μL 1× kinase buffer. • 6. 25 nL of compound was transferred to a 384-well plate using Echo650. • 7. 2.5 μL of 2×KIF18A from Step 4 (final concentration of 30 nM) was added to the 384-well plate and the plate was incubated at 25° C. for 15 minutes. • 8. 2.5 μL of 2×ATP from Step 5 (final concentration of 150 μM) was added to the 384-well plate and the plate was incubated at 25° C. for 15 minutes. • 9. 5 μL ADP-Glo™ Reagent (Promega, G9101) was added to the 384-well plate and the plate was incubated at 25° C. for 40 minutes. • 10. 10 μL of kinase detection reagent (Promega, G9101) was added to the 384-well plate and the plate was incubated at 25° C. for 40 minutes. • 11. Luminescence values were measured using the EnVision Xcite Multilabel Reader (PerkinElmer, 2105-0020).

OVCAR-3 cells = assay: OVCAR-3 cell proliferation (Cell Titer-Glo, 10 days); format: cell-based, human
Description: The inhibitory effect on the KIF18A target by the compounds of the present disclosure was evaluated by testing the inhibitory effect on proliferation of OVCAR-3 cells by the compounds of the present disclosure.
The following method was used to determine the effect of the compounds of the present disclosure on the proliferation of human ovarian cancer cells Ovcar-3 (HTB-161, ATCC). Cells were cultured in RPMI-1640 complete medium containing 20% fetal bovine serum, 0.01 mg/mL bovine insulin, 100 U penicillin, and 100 μg/mL streptomycin. The Promega kit Cell Titer-Glo (Cat. No. G7572) was used in this method for test.
For specific steps, reference was made to the kit instructions, and the procedure was outlined below: Test compounds were dissolved in DMSO to prepare a 10 mM stock solution, which was diluted at the predetermined test concentrations, and the test compounds at different concentrations were added to a 384-well cell test plate using ECHO. In the plate pre-added with the test compounds, 400 OVCAR-3 cells in the logarithmic growth phase were seeded per well, ensuring the final concentration of the test compounds in the reaction system ranged between 0.12 nM and 10 μM. The co-culture was maintained in a cell culture incubator for 10 days. Before testing, the cell culture plate was equilibrated for 10 minutes at room temperature, 25 μL of Cell Titer-Glo was added to each well, and the mixture was shaken and mixed well and let stand for 5 minutes. The luminescence values for samples in various wells were read using a microplate reader in Luminescence mode.
The percentage of inhibition of cell proliferation by the test compound at each concentration was calculated by comparing with the values of the control group (0.1% DMSO). The IC50 values of the compounds were obtained by concentration-inhibition rate nonlinear regression analysis of the test compounds using GraphPad Prism 9.

Sequence of KIF18A (Q8NI77 whole entry): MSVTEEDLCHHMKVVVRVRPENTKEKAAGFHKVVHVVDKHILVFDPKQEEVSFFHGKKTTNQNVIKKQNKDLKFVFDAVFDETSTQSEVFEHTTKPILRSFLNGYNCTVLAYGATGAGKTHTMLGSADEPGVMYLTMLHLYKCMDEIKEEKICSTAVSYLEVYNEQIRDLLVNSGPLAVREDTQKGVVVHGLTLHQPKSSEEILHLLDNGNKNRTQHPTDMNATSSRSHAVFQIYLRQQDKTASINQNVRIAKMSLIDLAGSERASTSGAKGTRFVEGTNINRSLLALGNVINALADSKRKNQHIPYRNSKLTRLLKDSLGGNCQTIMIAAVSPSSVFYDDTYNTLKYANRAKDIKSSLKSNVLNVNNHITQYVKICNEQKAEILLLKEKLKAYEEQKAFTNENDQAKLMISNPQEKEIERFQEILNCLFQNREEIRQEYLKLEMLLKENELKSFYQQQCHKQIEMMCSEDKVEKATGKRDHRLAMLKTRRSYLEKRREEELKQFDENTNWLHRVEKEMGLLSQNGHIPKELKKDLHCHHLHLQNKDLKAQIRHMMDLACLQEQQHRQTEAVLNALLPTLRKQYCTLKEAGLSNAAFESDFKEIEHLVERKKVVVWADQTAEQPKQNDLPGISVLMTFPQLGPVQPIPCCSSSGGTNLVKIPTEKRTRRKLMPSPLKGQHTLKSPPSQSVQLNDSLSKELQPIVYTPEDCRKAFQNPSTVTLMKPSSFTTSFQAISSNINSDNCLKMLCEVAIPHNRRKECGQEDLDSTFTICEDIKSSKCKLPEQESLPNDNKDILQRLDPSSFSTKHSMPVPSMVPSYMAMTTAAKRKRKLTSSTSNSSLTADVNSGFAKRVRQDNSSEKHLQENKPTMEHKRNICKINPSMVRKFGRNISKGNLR
Sequence of KIF18A (P02550 whole entry partner): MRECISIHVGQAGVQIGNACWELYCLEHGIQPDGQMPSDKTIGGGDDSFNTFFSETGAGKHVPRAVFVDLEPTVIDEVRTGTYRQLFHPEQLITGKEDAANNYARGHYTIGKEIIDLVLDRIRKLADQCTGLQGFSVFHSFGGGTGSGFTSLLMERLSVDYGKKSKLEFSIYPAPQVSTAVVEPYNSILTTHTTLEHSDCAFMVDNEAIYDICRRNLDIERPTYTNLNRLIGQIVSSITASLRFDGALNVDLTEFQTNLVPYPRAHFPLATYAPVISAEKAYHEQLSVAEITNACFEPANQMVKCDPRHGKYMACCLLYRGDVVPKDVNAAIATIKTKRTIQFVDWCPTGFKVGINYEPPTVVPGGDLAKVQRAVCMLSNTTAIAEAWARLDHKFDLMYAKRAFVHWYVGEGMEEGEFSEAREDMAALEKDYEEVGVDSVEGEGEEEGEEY
Sequence of KIF18A (P02554 whole entry partner): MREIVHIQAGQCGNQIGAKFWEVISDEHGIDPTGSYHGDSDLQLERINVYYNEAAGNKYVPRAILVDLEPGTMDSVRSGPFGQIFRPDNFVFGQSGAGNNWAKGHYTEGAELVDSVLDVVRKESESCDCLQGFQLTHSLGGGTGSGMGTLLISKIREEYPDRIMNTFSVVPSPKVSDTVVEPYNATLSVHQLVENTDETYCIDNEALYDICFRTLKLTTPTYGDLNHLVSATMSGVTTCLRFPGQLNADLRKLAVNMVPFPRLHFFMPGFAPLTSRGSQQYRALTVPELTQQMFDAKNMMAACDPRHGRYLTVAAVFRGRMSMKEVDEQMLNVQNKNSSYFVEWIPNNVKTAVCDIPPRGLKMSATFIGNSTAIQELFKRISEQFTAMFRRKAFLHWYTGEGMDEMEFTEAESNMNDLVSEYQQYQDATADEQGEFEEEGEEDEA

IC50 (KIF18A) [nM]	IC50 (OVCAR-3 cells; Homo sapiens, OVCAR-3, 240 h) [nM]	IC50 (OVCAR-3 cells) [nM]	Compound
50 to 500	–	50 to 500	COC1c2cc3c(NC(=O)c4ccc(NS(=O)(=O)CCO)cc4N4CCC5(CC4)CC5)cccc3n2CCC1(F)F (single isomer, unassigned) [Example 340-P1]
50 to 500	50 to 500	–	CCS(=O)(=O)Nc1ccc(C(=O)Nc2cccc3c2cc2n3CCCC2O)c(N2CCC3(CC2)CC3)c1 (single isomer, unassigned) [Example 373-P1, 4-(ethylsulfonamido)-N-(9-hydroxy-6,7,8,9-tetrahydropyridino[1,2-a]indol-1-yl)-2-(6-azaspiro[2.5]oct-6-yl)benzamide]
50 to 500	–	50 to 500	CCS(=O)(=O)Nc1ccc(C(=O)Nc2cccc3c2cc2n3CCCC2O)c(N2CCC3(CC2)CC3)c1 (single isomer, unassigned) [Example 373-P2, 4-(ethylsulfonamido)-N-(9-hydroxy-6,7,8,9-tetrahydropyridino[1,2-a]indol-1-yl)-2-(6-azaspiro[2.5]oct-6-yl)benzamide]
500 to 5000	–	–	O=C(Nc1cccc(N2CCC(F)(F)CC2)c1)Nc1ccc(NS(=O)(=O)CCO)cc1N1CCC2(CC1)CC2 [Example 147, N-(4-(3-(3-(4,4-difluoropiperidin-1-yl)phenyl)urea)-3-(6-azaspiro[2.5]octan-6-yl)phenyl)-2-hydroxyethane-1-sulfonamide]
> 5000	–	–	O=C(Nc1ccc2c(c1)N(CC1CC1)CC2)Nc1ccc(NS(=O)(=O)CCO)cc1N1CCC2(CC1)CC2 [Example 150, N-(4-(3-(1-(cyclopropylmethyl)indolin-6-yl)urea)-3-(6-azaspiro[2.5]octan-6-yl)phenyl)-2-hydroxyethane-1-sulfonamide]
> 5000	–	–	O=C(Nc1ccc2c(c1)CCN2CC1CC1)Nc1ccc(NS(=O)(=O)CCO)cc1N1CCC2(CC1)CC2 [Example 151, N-(4-(3-(1-(cyclopropylmethyl)indolin-5-yl)urea)-3-(6-azaspiro[2.5]octan-6-yl)phenyl)-2-hydroxyethane-1-sulfonamide]
500 to 5000	–	–	CC(C)(C)Cn1ccc2c(NC(=O)c3ccc(NS(=O)(=O)CCO)cc3N3CCC4(CC3)CC4)cccc21 [Example 281, 4-((2-hydroxyethyl)sulfonamido)-N-(1-neopentyl-1H-indol-4-yl)-2-(6-azaspiro[2.5]octan-6-yl)benzamide]
500 to 5000	–	–	O=C(Nc1cccc2c1ccn2CC1(C(F)(F)F)CC1)c1ccc(NS(=O)(=O)CCO)cc1N1CCC2(CC1)CC2 [Example 284]
50 to 500	–	–	CC1(Cn2ccc3c(NC(=O)c4ccc(NS(=O)(=O)CCO)cc4N4CCC5(CC4)CC5)cccc32)CC1 [Example 285, 4-((2-hydroxyethyl)sulfonamido)-N-(1-((1-methylcyclopropyl)methyl)-1H-indol-4-yl)-2-(6-azaspiro[2.5]oct-6-yl)benzamide]
> 5000	–	–	O=C(Nc1nccc2c1cc1n2CCOC1)c1ccc(NS(=O)(=O)CCO)cc1N1CCC2(CC1)CC2 [Example 306, N-(3,4-dihydro-1H-pyridino[3′,4′:4,5]pyrrolo[2,1-c][1,4]oxazin-9-yl)-4-((2-hydroxyethyl)sulfonamido)-2-(6-azaspiro[2.5]oct-6-yl)benzamide]
–	50 to 500	–	CC1(C)Cn2c(cc3c(NC(=O)c4cnc(NS(=O)(=O)CCO)cc4N4CCC5(CC4)CC5)cccc32)CO1 [Example 454, N-(3,3-dimethyl-3,4-dihydro-1H-[1,4]oxazino[4,3-a]indol-9-yl)-6-(2-hydroxyethylsulfonamide)-4-(6-azaspiro[2.5]octan-6-yl)nicotinamide]
–	50 to 500	–	CC1(C)Cn2c(cc3c(NC(=O)c4ccc(NS(=O)(=O)CCO)cc4N4CCC(=C(F)F)CC4)ccc(Cl)c32)CO1 [Example 522, N-(6-chloro-3,3-dimethyl-3,4-dihydro-1H-[1,4]oxazino[4,3-a]indol-9-yl)-2-[4-(difluoromethylene)hexahydropyridin-1-yl]-4-{[(2-hydroxyethyl)sulfonamide]}benzamide]

The next lines start with the compound.

Compound	IC50 (KIF18A) [nM]	IC50 (OVCAR-3 cells; Homo sapiens, OVCAR-3, 240 h) [nM]	IC50 (OVCAR-3 cells) [nM]
CC1Cn2c(cc3c(NC(=O)c4ccc(NS(=O)(=O)CCO)cc4N4CCC5(CC4)CC5)cccc32)C(C)O1 (single isomer, unassigned) [Compound 312-P1, N-(1,3-dimethyl-3,4-dihydro-1H-[1,4]oxazino[4,3-a]indol-9-yl)-4-((2-hydroxyethyl)sulfonamido)-2-(6-azaspiro[2.5]oct-6-yl)benzamide]	50 to 500	50 to 500	–
CC1Cn2c(cc3c(NC(=O)c4ccc(NS(=O)(=O)CCO)cc4N4CCC5(CC4)CC5)cccc32)C(C)O1 (single isomer, unassigned) [Compound 312-P2B, N-(1,3-dimethyl-3,4-dihydro-1H-[1,4]oxazino[4,3-a]indol-9-yl)-4-((2-hydroxyethyl)sulfonamido)-2-(6-azaspiro[2.5]oct-6-yl)benzamide]	50 to 500	–	50 to 500
[2H]C([2H])([2H])OC1c2cc3c(NC(=O)c4ccc(NS(=O)(=O)CCO)cc4N4CCC5(CC4)CC5)cccc3n2CCC1(F)F (single isomer, unassigned) [Compound 385-P1, N-(8,8-difluoro-9-(methoxy-d3)-6,7,8,9-tetrahydropyridino[1,2-a]indol-1-yl)-4-((2-hydroxyethyl)sulfonamido)-2-(6-azaspiro[2.5]oct-6-yl)benzamide]	–	50 to 500	–
[2H]C([2H])([2H])OC1c2cc3c(NC(=O)c4ccc(NS(=O)(=O)CCO)cc4N4CCC(=C(F)F)CC4)cccc3n2CCC1(F)F (single isomer, unassigned) [Compound 386-P1, N-(8,8-difluoro-9-(methoxy-d3)-6,7,8,9-tetrahydropyridino[1,2-a]indol-1-yl)-2-(4-(difluoromethylene)piperidin-1-yl)-4-((2-hydroxyethyl)sulfonamido)benzamide]	500 to 5000	–	500 to 5000
CC1OCCn2c1cc1c(NC(=O)c3ccc(NS(=O)(=O)CCO)cc3N3CCC4(CC3)CC4)cccc12 (stereo not drawn) [Compound 311-P1, 4-((2-hydroxyethyl)sulfonamido)-N-(1-methyl-3,4-dihydro-1H-[1,4]oxazinyl[4,3-a]indol-9-yl)-2-(6-azaspiro[2.5]oct-6-yl)benzamide]	≤ 50	–	50 to 500
COC1c2cc3c(NC(=O)c4ccc(NS(=O)(=O)CCO)cc4N4CCC(=C(F)F)CC4)ccc(C#N)c3n2CCC1(F)F (stereo not drawn) [Compound 427, N-(4-cyano-8,8-difluoro-9-methoxy-6,7,8,9-tetrahydropyridino[1,2-a]indol-1-yl)-2-(4-(difluoromethylene)piperidin-1-yl)-4-((2-hydroxyethyl)sulfonamide)benzamide]	–	50 to 500	–
Nc1cc(NS(=O)(=O)CCO)cc(N2CCC3(CC2)CC3)c1C(=O)Nc1cccc2c1CCN2CC1CC1 [Example 42]	50 to 500	–	–
CC1(NS(=O)(=O)c2ccc(C(=O)Nc3cccc4c3ccn4CC3CC3)c(N3CCC4(CC3)CC4)c2)COC1 [Example 44, N-(1-(cyclopropylmethyl)-1H-indol-4-yl)-4-(N-(3-methyloxetan-3-yl)sulfamoyl)-2-(6-azaspiro[2.5]oct-6-yl)benzamide]	50 to 500	–	–

From patent US20260070887A1 (Shenzhen Zhongge Biological Technology Co., Ltd., priority 2022, published 2026)
